Measurements as given in ChEMBL document CHEMBL5465560, “Selectivity Literature for EUbOPEN Chemogenomic Library” (2024).

Tests used:
[1] = target: T1, Serine/threonine-protein kinase greatwall (Homo sapiens) (UniProt Q96GX5); experiment: Selectivity interaction (Kinase panel (KiNativ target engagement assay in Jurkat cells)) EUB0001635a MASTL; type: cell-based; settings: at 1 µM
T1 sequence (whole entry): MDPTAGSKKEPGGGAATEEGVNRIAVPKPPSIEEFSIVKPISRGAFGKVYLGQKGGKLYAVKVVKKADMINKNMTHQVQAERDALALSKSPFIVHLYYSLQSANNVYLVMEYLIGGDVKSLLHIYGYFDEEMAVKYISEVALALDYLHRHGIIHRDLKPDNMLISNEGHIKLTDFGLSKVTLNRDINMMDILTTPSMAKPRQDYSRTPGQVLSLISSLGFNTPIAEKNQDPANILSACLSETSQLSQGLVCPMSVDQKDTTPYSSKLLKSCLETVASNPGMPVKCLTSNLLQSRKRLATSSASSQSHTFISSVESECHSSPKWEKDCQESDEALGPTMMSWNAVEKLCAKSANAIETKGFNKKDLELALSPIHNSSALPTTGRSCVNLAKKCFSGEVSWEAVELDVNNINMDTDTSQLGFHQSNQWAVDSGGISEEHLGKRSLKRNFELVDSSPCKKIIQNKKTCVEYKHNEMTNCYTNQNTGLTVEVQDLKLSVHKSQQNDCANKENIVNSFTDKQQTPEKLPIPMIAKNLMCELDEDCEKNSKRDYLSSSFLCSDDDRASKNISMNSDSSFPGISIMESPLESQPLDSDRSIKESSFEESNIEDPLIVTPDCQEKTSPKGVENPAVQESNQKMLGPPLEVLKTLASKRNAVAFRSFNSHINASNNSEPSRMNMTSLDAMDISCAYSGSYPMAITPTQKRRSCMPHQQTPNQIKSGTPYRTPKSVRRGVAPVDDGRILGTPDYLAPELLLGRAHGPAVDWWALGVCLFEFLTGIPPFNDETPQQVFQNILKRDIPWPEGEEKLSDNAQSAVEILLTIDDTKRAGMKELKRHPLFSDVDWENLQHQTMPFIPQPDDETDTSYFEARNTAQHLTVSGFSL

[2] = target: Bromodomain-containing protein 7 (Homo sapiens) (UniProt Q9NPI1); experiment: Selectivity interaction (Human bromodomain panel (DSF assay)) EUB0000233b BRD7
[3] = target: T2, Tyrosine-protein kinase Mer (Homo sapiens) (UniProt Q12866); experiment: Selectivity interaction (KinomeScan (DiscoverX)) EUB0000229b MERTK; settings: at 10 µM
T2 sequence (whole entry): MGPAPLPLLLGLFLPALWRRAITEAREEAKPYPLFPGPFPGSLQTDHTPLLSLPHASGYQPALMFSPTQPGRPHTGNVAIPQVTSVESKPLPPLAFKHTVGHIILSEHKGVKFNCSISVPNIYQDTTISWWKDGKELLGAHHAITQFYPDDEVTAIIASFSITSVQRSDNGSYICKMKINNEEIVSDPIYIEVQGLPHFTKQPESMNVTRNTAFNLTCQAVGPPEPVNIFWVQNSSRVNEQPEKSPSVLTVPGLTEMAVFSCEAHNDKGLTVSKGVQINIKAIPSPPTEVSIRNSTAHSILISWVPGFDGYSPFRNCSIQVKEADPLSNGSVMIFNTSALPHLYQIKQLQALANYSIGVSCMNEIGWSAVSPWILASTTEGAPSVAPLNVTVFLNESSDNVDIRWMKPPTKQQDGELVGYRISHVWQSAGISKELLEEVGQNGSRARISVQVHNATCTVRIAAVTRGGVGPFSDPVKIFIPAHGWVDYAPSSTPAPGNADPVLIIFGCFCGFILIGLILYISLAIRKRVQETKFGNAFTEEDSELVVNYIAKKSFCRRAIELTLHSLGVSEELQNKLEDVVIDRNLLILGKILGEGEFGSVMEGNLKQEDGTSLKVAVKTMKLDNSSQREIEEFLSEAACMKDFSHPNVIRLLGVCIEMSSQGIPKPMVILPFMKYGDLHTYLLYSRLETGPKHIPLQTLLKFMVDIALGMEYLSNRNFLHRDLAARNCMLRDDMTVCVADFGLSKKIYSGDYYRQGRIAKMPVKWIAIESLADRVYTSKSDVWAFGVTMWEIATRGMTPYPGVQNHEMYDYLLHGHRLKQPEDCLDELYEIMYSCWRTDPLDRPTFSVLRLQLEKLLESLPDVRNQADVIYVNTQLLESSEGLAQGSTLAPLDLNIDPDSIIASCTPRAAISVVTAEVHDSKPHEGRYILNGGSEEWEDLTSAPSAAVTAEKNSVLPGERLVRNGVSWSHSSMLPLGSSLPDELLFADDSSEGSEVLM

[4] = target: 5-hydroxytryptamine receptor 2B (Homo sapiens, UniProt P41595); experiment: Selectivity interaction (GPCR panel (PDSP screen)) EUB0001079a HTR2B; settings: at 10 µM
Chain of 5-hydroxytryptamine receptor 2B (P41595 whole entry): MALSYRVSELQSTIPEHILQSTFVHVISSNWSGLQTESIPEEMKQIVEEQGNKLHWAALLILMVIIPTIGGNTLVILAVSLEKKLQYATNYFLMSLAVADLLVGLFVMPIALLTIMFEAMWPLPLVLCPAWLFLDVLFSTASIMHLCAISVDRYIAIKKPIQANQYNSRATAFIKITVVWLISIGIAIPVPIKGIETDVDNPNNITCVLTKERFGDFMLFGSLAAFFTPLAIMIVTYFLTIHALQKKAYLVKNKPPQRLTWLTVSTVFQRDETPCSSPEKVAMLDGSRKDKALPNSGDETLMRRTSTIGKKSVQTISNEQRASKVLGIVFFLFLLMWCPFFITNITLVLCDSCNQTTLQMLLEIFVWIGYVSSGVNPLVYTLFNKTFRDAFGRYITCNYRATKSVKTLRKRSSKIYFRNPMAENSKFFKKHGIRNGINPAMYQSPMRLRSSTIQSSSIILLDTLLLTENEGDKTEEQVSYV

[5] = target: Fibroblast growth factor receptor 2 (Homo sapiens) (UniProt P21802); experiment: Selectivity interaction (Kinase screening (Nanosyn)) EUB0000604a FGFR2
[6] = target: Tyrosine-protein kinase receptor UFO (Homo sapiens) (UniProt P30530); experiment: Selectivity interaction (Millipore kinase profiler) EUB0000124b AXL; settings: at 10 µM
Chain of Tyrosine-protein kinase receptor UFO (Homo sapiens) (P30530 whole entry): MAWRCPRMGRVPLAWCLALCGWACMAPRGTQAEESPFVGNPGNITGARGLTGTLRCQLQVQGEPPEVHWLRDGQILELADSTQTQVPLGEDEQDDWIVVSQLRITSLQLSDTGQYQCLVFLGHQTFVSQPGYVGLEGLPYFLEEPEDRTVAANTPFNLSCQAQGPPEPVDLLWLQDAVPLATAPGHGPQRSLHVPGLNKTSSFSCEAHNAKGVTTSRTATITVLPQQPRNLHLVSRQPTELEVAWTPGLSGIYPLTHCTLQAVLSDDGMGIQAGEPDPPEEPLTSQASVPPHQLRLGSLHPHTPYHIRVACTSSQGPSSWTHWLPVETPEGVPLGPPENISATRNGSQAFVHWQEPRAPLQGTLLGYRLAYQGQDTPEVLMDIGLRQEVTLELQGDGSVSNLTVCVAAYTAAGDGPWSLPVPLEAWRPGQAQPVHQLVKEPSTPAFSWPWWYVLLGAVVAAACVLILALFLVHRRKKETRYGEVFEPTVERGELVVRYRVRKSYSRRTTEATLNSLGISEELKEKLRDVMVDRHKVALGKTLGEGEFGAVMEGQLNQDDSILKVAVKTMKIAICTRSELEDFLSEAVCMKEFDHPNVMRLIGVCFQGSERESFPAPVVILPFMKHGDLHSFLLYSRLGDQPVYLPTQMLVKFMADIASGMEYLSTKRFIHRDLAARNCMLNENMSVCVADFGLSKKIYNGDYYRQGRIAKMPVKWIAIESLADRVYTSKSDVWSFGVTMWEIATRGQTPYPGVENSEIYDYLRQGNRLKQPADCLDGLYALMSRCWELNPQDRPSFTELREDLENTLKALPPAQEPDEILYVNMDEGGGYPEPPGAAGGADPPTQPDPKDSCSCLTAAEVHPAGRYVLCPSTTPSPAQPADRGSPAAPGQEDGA

[7] = target: Protein kinase C alpha type (Homo sapiens, UniProt P17252); experiment: Selectivity interaction (Millipore kinase profiler) EUB0000124b PRKCA; settings: at 10 µM
[8] = target: Casein kinase I isoform delta (Homo sapiens, UniProt P48730); experiment: Selectivity interaction (ProQinase) EUB0000171b CSNK1D
Chain of Casein kinase I isoform delta (P48730 whole entry, looked up, canonical isoform): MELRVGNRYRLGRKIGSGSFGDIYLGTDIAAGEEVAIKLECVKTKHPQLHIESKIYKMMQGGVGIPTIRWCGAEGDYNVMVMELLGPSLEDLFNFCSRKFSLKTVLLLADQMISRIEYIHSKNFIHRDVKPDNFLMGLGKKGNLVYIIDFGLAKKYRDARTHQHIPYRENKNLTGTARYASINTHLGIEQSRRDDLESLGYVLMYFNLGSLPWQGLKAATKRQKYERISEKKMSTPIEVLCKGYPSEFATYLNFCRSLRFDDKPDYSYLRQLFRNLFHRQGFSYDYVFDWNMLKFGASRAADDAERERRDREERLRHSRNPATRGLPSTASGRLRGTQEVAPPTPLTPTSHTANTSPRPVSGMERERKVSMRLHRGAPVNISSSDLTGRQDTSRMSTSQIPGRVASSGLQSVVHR

[9] = target: Dual specificity protein kinase CLK4 (Homo sapiens, UniProt Q9HAZ1); experiment: Selectivity interaction (KinomeScan (DiscoverX)) EUB0001619a CLK4; settings: at 1 µM
[10] = target: Myosin light chain kinase, smooth muscle (Homo sapiens, UniProt Q15746); experiment: Selectivity interaction (ActivX KiNativ screen (ex vivo kinase selectivity in human PBMCs)) EUB0001619a MYLK; type: cell-based; settings: PBMC, at 1 µM
[11] = target: RAF proto-oncogene serine/threonine-protein kinase (Homo sapiens) (UniProt P04049); experiment: Selectivity interaction (KinomeScan (DiscoverX)) EUB0001619a RAF1; settings: at 1 µM
Chain of RAF proto-oncogene serine/threonine-protein kinase (Homo sapiens) (P04049 whole entry, canonical isoform): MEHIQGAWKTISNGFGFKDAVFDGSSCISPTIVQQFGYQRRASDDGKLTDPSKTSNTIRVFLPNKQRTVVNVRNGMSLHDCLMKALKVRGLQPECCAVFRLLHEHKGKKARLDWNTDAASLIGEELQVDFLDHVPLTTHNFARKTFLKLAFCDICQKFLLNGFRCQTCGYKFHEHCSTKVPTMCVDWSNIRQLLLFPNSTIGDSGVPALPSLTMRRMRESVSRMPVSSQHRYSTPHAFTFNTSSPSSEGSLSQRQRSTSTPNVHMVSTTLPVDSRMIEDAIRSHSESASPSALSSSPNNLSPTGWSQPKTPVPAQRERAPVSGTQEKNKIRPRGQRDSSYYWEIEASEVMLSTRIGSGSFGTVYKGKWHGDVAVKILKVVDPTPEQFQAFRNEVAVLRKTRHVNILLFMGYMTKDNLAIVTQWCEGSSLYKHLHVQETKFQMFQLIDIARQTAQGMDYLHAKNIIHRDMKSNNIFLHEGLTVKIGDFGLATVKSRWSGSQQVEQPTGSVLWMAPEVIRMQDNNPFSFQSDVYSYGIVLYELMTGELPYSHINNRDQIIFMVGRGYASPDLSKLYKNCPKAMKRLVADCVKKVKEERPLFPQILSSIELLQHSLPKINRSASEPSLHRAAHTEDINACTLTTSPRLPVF

[12] = target: Casein kinase I isoform gamma-3 (Homo sapiens) (UniProt Q9Y6M4); experiment: Selectivity interaction (KinaseProfiler screening (Millipore)) EUB0000601a CSNK1G3; settings: at 3 µM
Chain of Casein kinase I isoform gamma-3 (Homo sapiens) (Q9Y6M4 whole entry, looked up, canonical isoform): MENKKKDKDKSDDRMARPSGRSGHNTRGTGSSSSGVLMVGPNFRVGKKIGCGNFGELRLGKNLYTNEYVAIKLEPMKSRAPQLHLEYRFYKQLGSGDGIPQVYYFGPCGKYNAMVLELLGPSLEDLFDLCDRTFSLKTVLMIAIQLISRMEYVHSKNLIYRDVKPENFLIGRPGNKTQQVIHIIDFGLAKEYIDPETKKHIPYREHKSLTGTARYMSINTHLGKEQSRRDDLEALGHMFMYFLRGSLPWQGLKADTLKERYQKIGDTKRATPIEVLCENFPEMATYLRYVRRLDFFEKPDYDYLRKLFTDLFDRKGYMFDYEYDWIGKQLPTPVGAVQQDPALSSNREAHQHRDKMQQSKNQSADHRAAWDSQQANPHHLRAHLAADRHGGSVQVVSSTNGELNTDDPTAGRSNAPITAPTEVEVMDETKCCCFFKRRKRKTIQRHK

[13] = target: Cyclin-dependent kinase 5 (Homo sapiens, UniProt Q00535); experiment: Selectivity interaction (KinomeScan (DiscoverX)) EUB0000607a CDK5; settings: at 10 µM
Chain of Cyclin-dependent kinase 5 (Q00535 whole entry, looked up): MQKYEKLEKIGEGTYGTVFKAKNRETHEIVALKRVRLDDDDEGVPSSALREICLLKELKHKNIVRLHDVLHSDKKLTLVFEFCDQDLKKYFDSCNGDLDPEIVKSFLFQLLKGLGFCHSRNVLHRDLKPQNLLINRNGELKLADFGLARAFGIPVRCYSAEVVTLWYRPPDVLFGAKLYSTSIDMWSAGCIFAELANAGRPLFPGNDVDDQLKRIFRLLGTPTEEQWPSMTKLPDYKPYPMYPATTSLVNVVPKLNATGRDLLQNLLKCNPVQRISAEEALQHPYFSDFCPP

[14] = target: Eukaryotic translation initiation factor 2-alpha kinase 1 (Homo sapiens) (UniProt Q9BQI3); experiment: Selectivity interaction (KinomeScan (DiscoverX)) EUB0000655a EIF2AK1; settings: at 10 µM
Chain of Eukaryotic translation initiation factor 2-alpha kinase 1 (Homo sapiens) (Q9BQI3 whole entry): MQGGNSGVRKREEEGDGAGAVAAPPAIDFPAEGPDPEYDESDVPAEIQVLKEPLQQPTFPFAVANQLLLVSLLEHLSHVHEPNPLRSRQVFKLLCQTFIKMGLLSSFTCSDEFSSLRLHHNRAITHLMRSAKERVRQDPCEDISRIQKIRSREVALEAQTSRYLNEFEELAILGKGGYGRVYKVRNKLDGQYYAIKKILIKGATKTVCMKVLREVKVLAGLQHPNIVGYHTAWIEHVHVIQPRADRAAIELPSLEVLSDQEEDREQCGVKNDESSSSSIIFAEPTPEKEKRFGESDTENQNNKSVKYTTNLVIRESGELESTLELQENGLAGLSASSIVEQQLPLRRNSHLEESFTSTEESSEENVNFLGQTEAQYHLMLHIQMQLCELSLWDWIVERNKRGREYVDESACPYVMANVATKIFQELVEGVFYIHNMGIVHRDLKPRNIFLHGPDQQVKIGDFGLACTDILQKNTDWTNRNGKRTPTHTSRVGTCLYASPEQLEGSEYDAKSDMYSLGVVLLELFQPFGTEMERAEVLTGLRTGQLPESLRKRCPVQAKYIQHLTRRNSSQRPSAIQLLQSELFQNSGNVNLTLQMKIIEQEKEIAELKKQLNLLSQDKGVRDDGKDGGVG

[15] = target: MAP kinase-interacting serine/threonine-protein kinase 2 (Homo sapiens, UniProt Q9HBH9); experiment: Selectivity interaction (KinomeScan (DiscoverX)) EUB0000655a MKNK2; settings: at 10 µM
Chain of MAP kinase-interacting serine/threonine-protein kinase 2 (Q9HBH9 whole entry, looked up): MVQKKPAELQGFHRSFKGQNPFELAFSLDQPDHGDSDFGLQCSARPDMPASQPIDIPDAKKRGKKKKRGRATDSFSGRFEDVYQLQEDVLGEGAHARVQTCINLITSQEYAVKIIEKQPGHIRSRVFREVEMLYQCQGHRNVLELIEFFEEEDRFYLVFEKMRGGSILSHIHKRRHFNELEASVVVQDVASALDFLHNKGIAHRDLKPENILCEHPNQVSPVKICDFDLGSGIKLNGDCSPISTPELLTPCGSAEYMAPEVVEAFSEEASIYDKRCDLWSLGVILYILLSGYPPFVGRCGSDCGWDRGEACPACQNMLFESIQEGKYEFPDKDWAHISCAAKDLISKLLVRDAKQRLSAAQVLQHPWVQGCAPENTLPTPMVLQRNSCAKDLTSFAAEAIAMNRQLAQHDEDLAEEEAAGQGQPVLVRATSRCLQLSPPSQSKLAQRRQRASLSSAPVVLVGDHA

[16] = target: AP2-associated protein kinase 1 (Homo sapiens, UniProt Q2M2I8); experiment: Selectivity interaction (KinomeScan (DiscoverX)) EUB0000092b AAK1; settings: at 10 µM

With `C=CC(=O)Nc1ccc(C(=O)Nc2[nH]nc3c2CN(C(=O)N[C@H](CN(C)C)c2ccccc2)C3(C)C)cc1` the % of engagement [1] was 5.2%.

For `CN(C)CCCOc1ccc(-c2cc(NCCCn3cccn3)nc(S(C)(=O)=O)n2)cc1`, the dTM [2] was 4 K.

In the case of `COc1cc(N(C)c2ccnc3ccc(C(F)(F)F)cc23)cc(OC)c1OC`, the % binding [3] is reported as 100%.

For `Nc1cnc(N2CCc3cc(S(=O)(=O)Nc4c(F)cc(Cl)cc4F)cc(N4CCCC4=O)c32)nc1` [TP-020n], the % of inhibition [4] was 12.9%.

In the case of `Cc1cnc(Nc2ccc(F)cc2Cl)nc1-c1c[nH]c(C(=O)N[C@H](CO)c2cccc(Cl)c2)c1`, the % of inhibition [5] is reported as 12%.

With `CC(=O)Nc1cccc(-n2c(=O)n(C3CC3)c(=O)c3c(Nc4ccc(I)cc4F)n(C)c(=O)c(C)c32)c1` the % of control [6] was 114% and the % of control [7] was 101%.

`C=CC(=O)Nc1cccc(C(=O)Nc2ccc(Nc3cc(-c4[nH]c(SC)nc4C)ccn3)cc2)c1` showed a % of control ([8]; at 1 µM) of 13% and a % of control ([8]; at 5 µM) of 3%.

`N#Cc1cccc(-c2c[nH]c3ncnc(N4CCOCC4)c23)c1` was tested, and the % of control [9] was 38%, the % of inhibition [10] was 13% and the % of control [11] was 71%.

In the case of `CCc1cc(Nc2nccc(-c3c(-c4ccc(OC)c(C(=O)Nc5c(F)cccc5F)c4)nc4ccccn34)n2)c(OC)cc1N1CCC(N2CCN(S(C)(=O)=O)CC2)CC1`, the % of inhibition [12] is reported as 46%.

For `CNC(=O)Nc1ccc(-c2nc(N3CC4CCC(C3)O4)c3cnn(C4CCC5(CC4)OCCO5)c3n2)cc1`, the % of control [13] was 88%.

`CN(C)CCOc1ccc(-c2nc(-c3ccncc3)c(-c3ccc4c(c3)CC/C4=N\O)[nH]2)cc1` was tested, and the % of control [14] was 58% and the % of control [15] was 95%.

`CCC(=O)N1CCN(c2ccc(-n3c(=O)ccc4cnc5ccc(-c6cnc7ccccc7c6)cc5c43)cc2C(F)(F)F)CC1` gave a % of control [16] of 75%.
